Eleven compounds from ChEMBL document CHEMBL1201862, “PubChem BioAssay data set” (2004) can be followed below.

Test systems include ACHN; BT-549; HCC 2998; HL-60; HOP-62; HOP-92; MCF7; MDA-MB-231; MDA-MB-435; NCI-H226; OVCAR-4; OVCAR-8; RXF 393; SF-268; SF-539; SK-MEL-2; SR; TK-10; DU-145; T47D.
Experiment in all cases: NCI-60 cell line screen, 48 h

Where a name gives a salt, the structure may show the parent alone.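 Compound exposure: 48 hours, 5 concentrations, 96-well plates. The concentration for 50% growth inhibition is given as GI50.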 Activity calls are given as the source filed them. Cut-off read from the data, not from the text of the source: active = GI50 up to about 1.1 µM and inactive = higher. A value given as a limit tells only on which side of the number the result lay.

Turning to `O=C1C(F)=CC(COC(c2ccccc2)(c2ccccc2)c2ccccc2)OC1n1cc(F)c(=O)[nH]c1=O` (configuration not stated), the GI50 in the assay on ACHN is 1.64 µM (inactive); with BT-549 it was 1.71 µM (inactive); with HCC 2998, 3.54 µM (inactive); in the assay with HL-60 it was 0.592 µM (active); in the assay with HOP-62, 3.18 µM (inactive); in the assay with HOP-92, 2.11 µM (inactive). In addition, the GI50 in the assay on MCF7 was 2.07 µM (inactive); in the assay with MDA-MB-231 it was 3.26 µM (inactive); with MDA-MB-435, 0.746 µM (active); with NCI-H226, 1.83 µM (inactive); in the assay with OVCAR-4, 3.99 µM (inactive); with OVCAR-8, 1.87 µM (inactive). For the same compound, the GI50 was 1.96 µM (inactive) with RXF 393; 2.9 µM (inactive) in the assay with SF-268; 1.94 µM (inactive) in the assay with SF-539; 2.91 µM (inactive) in the assay with SK-MEL-2; 6.18 µM (inactive) in the assay with SR; 1.34 µM (inactive) in the assay with TK-10.
Turning to `O=C(/C=C/c1ccsc1)c1ccc(Cl)cc1`, the GI50 was > 100 µM (inactive) with ACHN; > 100 µM (inactive) in the assay with DU-145; > 100 µM (inactive) with HCC 2998; 19.1 µM (inactive) in the assay with HL-60; > 100 µM (inactive) in the assay with HOP-62; 34.8 µM (inactive) in the assay with MCF7. Moreover, the GI50 in the assay with MDA-MB-231 was 63.7 µM (inactive); in the assay with MDA-MB-435 it was 41.8 µM (inactive); in the assay on NCI-H226, 52 µM (inactive); in the assay on OVCAR-4, > 100 µM (inactive); in the assay with OVCAR-8, 64.7 µM (inactive); with SF-268, 79.4 µM (inactive). The GI50 is 76.7 µM (inactive) in the assay with SF-539; > 100 µM (inactive) in the assay on SK-MEL-2; 18.7 µM (inactive) in the assay on SR; 74.8 µM (inactive) in the assay with T47D; > 100 µM (inactive) with TK-10.
Turning to `Nc1nc(N)c2ncn(CC3CCC(CO)C3)c2n1` (configuration not stated), the GI50 in the assay on ACHN, in the assay on DU-145, in the assay with HCC 2998, in the assay with HOP-62, with HOP-92 and with MCF7 was > 100 µM (inactive) throughout. Moreover, the GI50 in the assay with MDA-MB-231, in the assay on MDA-MB-435, in the assay with NCI-H226, in the assay with OVCAR-4, with RXF 393 and in the assay on SF-268 was > 100 µM (inactive) in each case. In addition, the GI50 in the assay with SF-539, with SK-MEL-2, in the assay on T47D and in the assay with TK-10 was > 100 µM (inactive) throughout.
For `CC(C)CC[C@H](O)[C@@H](C)[C@H]1[C@@H](OC2OC(C)C(O)C(O)C2O)C[C@H]2[C@@H]3CC=C4C[C@@H](O)CC[C@]4(C)[C@H]3[C@@H](O)C[C@]12C` (some centres not stated), the GI50 with ACHN was > 27.7 µM (inactive); with BT-549, 0.491 µM (active); in the assay on HCC 2998 it was > 100 µM (inactive); in the assay with HL-60, 0.098 µM (active); with HOP-62, 0.301 µM (active); in the assay on HOP-92, 0.312 µM (active). Moreover, the GI50 with MCF7 is 0.656 µM (active); with MDA-MB-435, 1.55 µM (inactive); with OVCAR-8, > 100 µM (inactive); with RXF 393 it was 0.124 µM (active); in the assay on SF-268, 1.58 µM (inactive); with SF-539, 0.0337 µM (active). Besides, the GI50 is > 27 µM (inactive) in the assay on SK-MEL-2, 0.143 µM (active) in the assay on SR and 0.692 µM (active) with TK-10.
As for `Oc1nc(S)nc2nc3c4cccnc4c4ccccc4c3nc12`, the GI50 with ACHN is > 100 µM (inactive); in the assay with BT-549, > 100 µM (inactive); in the assay with DU-145, > 100 µM (inactive); in the assay with HCC 2998, > 100 µM (inactive); with HL-60 it was 30.9 µM (inactive); in the assay with HOP-62, 52.7 µM (inactive). Besides, the GI50 is > 100 µM (inactive) in the assay on HOP-92; 88.3 µM (inactive) in the assay on MCF7; > 100 µM (inactive) in the assay with MDA-MB-435; > 100 µM (inactive) in the assay with OVCAR-4; > 100 µM (inactive) with OVCAR-8; 49.8 µM (inactive) in the assay with RXF 393. The GI50 is > 100 µM (inactive) in the assay with SF-268, > 100 µM (inactive) in the assay on SF-539, 50.4 µM (inactive) in the assay on SR and > 100 µM (inactive) in the assay with TK-10.
Consider `CC1(C)C(/C=N\O)=[N+]([O-])C(C)(C)N1O`, for which the GI50 is > 100 µM (inactive) in the assay with ACHN; > 100 µM (inactive) in the assay with DU-145; > 100 µM (inactive) with HCC 2998; 31.6 µM (inactive) with HL-60; > 100 µM (inactive) in the assay with HOP-62; > 100 µM (inactive) in the assay on HOP-92. The GI50 in the assay with MCF7 was > 100 µM (inactive); in the assay on MDA-MB-231, > 100 µM (inactive); in the assay with MDA-MB-435 it was 25.2 µM (inactive); in the assay on NCI-H226 it was > 100 µM (inactive); with OVCAR-4, > 100 µM (inactive); with OVCAR-8, > 100 µM (inactive). Besides, the GI50 with RXF 393, in the assay on SF-268, in the assay with SF-539, in the assay with SK-MEL-2, with SR and in the assay on T47D was > 100 µM (inactive) each time. The GI50 in the assay on TK-10 was > 100 µM (inactive).
Consider `Cc1ccc(C(=O)/C=C/N2CCN(c3cccc(C(F)(F)F)c3)CC2)cc1`, for which the GI50 was 23.9 µM (inactive) with ACHN; 16 µM (inactive) in the assay with DU-145; 12.4 µM (inactive) in the assay with HCC 2998; 22.8 µM (inactive) with HL-60; 20.7 µM (inactive) with HOP-62; 27.1 µM (inactive) with HOP-92. Moreover, the GI50 in the assay on MCF7 was 18 µM (inactive); in the assay with MDA-MB-231, 14.6 µM (inactive); in the assay on MDA-MB-435, 16.9 µM (inactive); in the assay on NCI-H226, 16.9 µM (inactive); in the assay with OVCAR-4, 43.7 µM (inactive); in the assay with OVCAR-8 it was 17.5 µM (inactive). Also, the GI50 in the assay on RXF 393 is 15.7 µM (inactive); in the assay with SF-268 it was 17.3 µM (inactive); with SF-539 it was 15.9 µM (inactive); in the assay on SK-MEL-2 it was 18.6 µM (inactive); in the assay with SR, 19.8 µM (inactive); in the assay on T47D it was 20.1 µM (inactive). Further, in the assay on TK-10, the GI50 is 25.3 µM (inactive).
Turning to `CCN(CC)CC(O)C1CCC(c2ccccc2)CC1` (configuration not stated), the GI50 is 18 µM (inactive) in the assay with ACHN; 61 µM (inactive) in the assay with DU-145; 0.627 µM (active) in the assay with HCC 2998; 28.9 µM (inactive) with HL-60; 30.9 µM (inactive) in the assay on HOP-62; 18.6 µM (inactive) with HOP-92. The GI50 in the assay on MCF7 was 22.5 µM (inactive); in the assay on MDA-MB-231, 17.1 µM (inactive); in the assay with MDA-MB-435, 17.1 µM (inactive); with NCI-H226 it was 15.8 µM (inactive); with OVCAR-8 it was 16.3 µM (inactive); in the assay on RXF 393, 17.4 µM (inactive). In addition, the GI50 with SF-268 was 31.6 µM (inactive); in the assay with SF-539 it was 16.7 µM (inactive); in the assay with SK-MEL-2, 16.7 µM (inactive); with T47D, 26.9 µM (inactive); in the assay on TK-10, 15.3 µM (inactive).
As to `CC1(C)CC2=C(SC3C=CC=CC3N2)C(=O)C1C(=O)C(N)=O` (configuration not stated), the GI50 with ACHN was > 100 µM (inactive); with BT-549, > 100 µM (inactive); with DU-145, > 100 µM (inactive); in the assay on HCC 2998, > 100 µM (inactive); in the assay on HL-60 it was 44.1 µM (inactive); in the assay with HOP-62 it was > 100 µM (inactive). Also, the GI50 is > 100 µM (inactive) in the assay on HOP-92; > 100 µM (inactive) with MCF7; > 100 µM (inactive) with MDA-MB-231; > 100 µM (inactive) in the assay with MDA-MB-435; 91 µM (inactive) in the assay with NCI-H226; > 100 µM (inactive) in the assay with OVCAR-4. For the same compound, the GI50 with OVCAR-8, with SF-268, in the assay on SF-539, in the assay with SK-MEL-2 and in the assay with TK-10 was > 100 µM (inactive) each time.
As to `COc1ccc(S(=O)(=O)O)cc1-n1nc(C(=O)Nc2ccccc2)n[n+]1-c1cc(S(=O)(=O)[O-])ccc1OC`, the GI50 with ACHN, in the assay with DU-145, with HCC 2998, in the assay with HL-60, in the assay with HOP-62 and in the assay with MCF7 was > 100 µM (inactive) each time. The GI50 in the assay on MDA-MB-231, in the assay with MDA-MB-435, in the assay with NCI-H226, in the assay with OVCAR-4, in the assay on RXF 393 and in the assay with SF-268 was > 100 µM (inactive) in each case. Moreover, the GI50 with SF-539, in the assay with SR, in the assay with T47D and in the assay with TK-10 was > 100 µM (inactive) throughout.
For `NCCS` [CYSTEAMINE HYDROCHLORIDE], the GI50 with ACHN, in the assay with DU-145, with HCC 2998, in the assay on HL-60, with HOP-62 and in the assay with MCF7 was > 100 µM (inactive) throughout. Further, the GI50 with MDA-MB-231, in the assay with MDA-MB-435, in the assay on NCI-H226, with OVCAR-4, with OVCAR-8 and in the assay on SF-268 was > 100 µM (inactive) each time. Moreover, the GI50 in the assay on SF-539 is 45.8 µM (inactive); in the assay with SK-MEL-2, > 100 µM (inactive); with SR, > 100 µM (inactive); in the assay on T47D, > 100 µM (inactive); with TK-10, > 100 µM (inactive).
